Experimental data as given in US6355653B1, “Amino-triazolopyridine derivatives” (Hoffmann-La Roche Inc., priority 1999, dated 2002).

Tests used:
[1] = target: T1, human adenosine A2A receptor (Homo sapiens, UniProt P29274); assay: [3H]-SCH-58261 binding assay at the human adenosine A2A receptor; details: [3H]-SCH-58261 (1 nM), membranes of CHO cells recombinantly expressing the human A2A receptor; Ki by Cheng-Prussoff; read-out: hA2ApKi (converted)
T1 construct: expressed in transfected cells; host or cells: CHO cells, Semliki Forest virus expression system; washed membrane preparation
Procedure: Human Adenosine A2A Receptor
The human adenosine A2A receptor was recombinantly expressed in chinese hamster ovary (CHO) cells using the semliki forest virus expression system. Cells were harvested, washed twice by centrifugation, homogenised and again washed by centrifugation. The final washed membrane pellet was suspended in a Tris (50 mM) buffer containing 120 mM NaCl, […] and 10 mM MgCl2 (pH 7.4) (buffer A). The [^3H]-SCH-58261 (Dionisotti et al., 1997, Br J Pharmacol 121, 353; 1 nM) binding assay was carried out in 96-well plates in the presence of 2.5 μg of membrane protein, 0.5 mg of Ysi-poly-1-lysine SPA beads io and 0.1U adenosine deaminase in a final volume of 200 μl of buffer A. Non-specific binding was defined using xanthine amine congener (XAC; 2 μM). Compounds were tested at 10 concentrations from 10 μM-0.3 nM. All assays were conducted in duplicate and repeated at least two times. Assay plates were incubated for lhour at room temperature before centrifugation and then bound ligand determined using a Packard Topcount scintillation counter. IC50 values were calculated using a non-linear curve fitting program and Ki values calculated using the Cheng-Prussoff equation.

T1 sequence (P29274 whole entry): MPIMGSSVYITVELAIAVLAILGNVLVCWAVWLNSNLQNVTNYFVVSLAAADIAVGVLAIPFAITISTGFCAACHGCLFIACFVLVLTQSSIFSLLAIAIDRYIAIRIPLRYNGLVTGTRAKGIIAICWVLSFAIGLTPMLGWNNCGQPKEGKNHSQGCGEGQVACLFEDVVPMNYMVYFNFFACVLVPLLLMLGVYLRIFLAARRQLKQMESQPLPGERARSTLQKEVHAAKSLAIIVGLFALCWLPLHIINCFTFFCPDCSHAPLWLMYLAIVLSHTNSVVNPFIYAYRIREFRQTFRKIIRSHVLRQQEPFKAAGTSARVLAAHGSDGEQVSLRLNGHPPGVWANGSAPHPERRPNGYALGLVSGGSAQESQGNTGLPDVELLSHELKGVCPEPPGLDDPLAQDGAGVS

Which melting point does the source give for `Cc1cc(-c2cc(N)n3nc(-c4ccco4)nc3c2)ccn1` [Example 7, 2-Furan-2-yl-7-(2-methyl-pyridin-4-yl)-[1,2,4]triazolo[1,5-a]pyridin-5-ylamine] here?
Its melting point is 100 to 101 °C.

With `Cc1cccc(-c2cc(N)n3nc(C4=CCCO4)nc3c2)c1` [2-(4,5-Dihydro-furan-2-yl)-7-m-tolyl-[1,2,4]triazolo[1,5-a]pyridin-5-ylamine] as the compound, how does the Ki [1] read?
The Ki was 31.6 nM.

Which Ki [1] does the source give for `Cc1cc(-c2cc(N)n3nc(-c4ccccn4)nc3c2)ccn1` [7-(2-Methyl-pyridin-4-yl)-2-pyridin-2-yl-[1,2,4]triazolo[1,5-a]pyridin-5-ylamine] here?
The Ki was 31.6 nM.

For `COc1ccc(-c2cc(N)n3nc(-c4ccco4)nc3c2)cc1OC` [7-(3,4-Dimethoxy-phenyl)-2-furan-2-yl-[1,2,4]triazolo[1,5-a]pyridin-5-ylamine], which Ki [1] is on record?
Its Ki is 25.1 nM.

For `CCc1cc(-c2cc(N)n3nc(-c4ccco4)nc3c2)ccn1` [Example 8, 7-(2-Ethyl-pyridin-4-yl)-2-furan-2-yl-[1,2,4]triazolo[1,5-a]pyridin-5-ylamine], which melting point is on record?
The melting point was 184 to 186 °C.

Which Ki [1] does the source give for `Nc1cc(-c2cccc(F)c2)cc2nc(C3=CCCO3)nn12` [2-(4,5-Dihydro-furan-2-yl)-7-(3-fluoro-phenyl)-[1,2,4]triazolo[1,5-a]pyridin-5-ylamine] here?
Its Ki is 25.1 nM.

Which Ki [1] does the source give for `Nc1cc(-c2ccc(Cl)c(Cl)c2)cc2nc(C3=CCCO3)nn12` [7-(3,4-Dichloro-phenyl)-2-(4,5-dihydro-furan-2-yl)-[1,2,4]triazolo[1,5-a]pyridin-5-ylamine] here?
The Ki was 7.94 nM.

With `Nc1cc(-c2ccncc2)cc2nc(-c3ccccc3)nn12` [Example 22, 2-Phenyl-7-pyridin-4-yl-[1,2,4]triazolo[1,5-a]pyridin-5-ylamine] as the compound, how does the melting point read?
The melting point was 207 to 210 °C.

Which Ki [1] does the source give for `Cc1cccc(-c2cc(N)n3nc(-c4ccco4)nc3c2)c1` [2-Furan-2-yl-7-m-tolyl-[1,2,4]triazolo[1,5-a]pyridin-5-ylamine] here?
Its Ki is 10 nM.

With `Nc1cc(-c2cc(Cl)cc(Cl)c2)cc2nc(-c3ccco3)nn12` [Example 5, 7-(3,5-Dichloro-phenyl)-2-furan-2-yl-[1,2,4]triazolo[1,5-a]pyridin-5-ylamine] as the compound, how does the melting point read?
The melting point was 257 to 260 °C.

Which melting point does the source give for `Nc1cc(-c2ccccn2)cc2nc(-c3ccccc3)nn12` [Example 23, 2-Phenyl-7-pyridin-2-yl-[1,2,4]triazolo[1,5-a]pyridin-5-ylamine] here?
Its melting point is 278 to 280 °C.

Which Ki [1] does the source give for `CCc1cc(-c2cc(N)n3nc(-c4ccccn4)nc3c2)ccn1` [7-(2-Ethyl-pyridin-4-yl)-2-pyridin-2-yl-[1,2,4]triazolo[1,5-a]pyridin-5-ylamine] here?
Its Ki is 7.94 nM.

With `Cc1cc(-c2nc3cc(-c4ccncc4)cc(N)n3n2)oc1C` [Example 16, 2-(4,5-Dimethyl-furan-2-yl)-7-pyridin-4-yl-[1,2,4]triazolo[1,5-a]pyridin-5-ylamine] as the compound, how does the melting point read?
The melting point was 275 to 277 °C.

For `Nc1cc(-c2cccnc2)cc2nc(-c3ccccc3)nn12` [Example 24, 2-Phenyl-7-pyridin-3-yl-[1,2,4]triazolo[1,5-a]pyridin-5-ylamine], which melting point is on record?
The melting point was 201 to 203 °C.

Which Ki [1] does the source give for `COc1ccc(-c2cc(N)n3nc(-c4ccco4)nc3c2)cn1` [2-Furan-2-yl-7-(6-methoxy-pyridin-3-yl)-[1,2,4]triazolo[1,5-a]pyridin-5-ylamine] here?
The Ki was 12.6 nM.

Which melting point does the source give for `Nc1cc(-c2ccccc2)cc2nc(-c3ccccc3)nn12` [Example 25, 2,7-Diphenyl-[1,2,4]triazolo[1,5-a]pyridin-5-ylamine] here?
The melting point was 214 to 216 °C.

With `Nc1cc(-c2ccnc(F)c2)cc2nc(-c3ccco3)nn12` [7-(2-Fluoro-pyridin-4-yl)-2-furan-2-yl-[1,2,4]triazolo[1,5-a]pyridin-5-ylamine] as the compound, how does the Ki [1] read?
Its Ki is 15.8 nM.
